Measured values taken from patent US12612412B2, “Antiviral heterocyclic compounds” (Enanta Pharmaceuticals, Inc., priority 2021, dated 2026).

How the values were obtained:
[1] = test system: HMPV clinical isolate TN/1501/A1; assay: HMPV antiviral assay Method-B (clinical isolate TN/1501/A1 in LLC-MK2 cells, ATP-Lite readout); assay type: cell-based, Human metapneumovirus (HMPV); settings: human metapneumovirus, LLC-MK2, 144 h, hMPV WT1501 (clinical isolate TN/1501/A1), 6 days
Description: In vitro HMPV antiviral activity was evaluated using the clinical isolate TN/1501/A1 and LLC-MK2 cells (ATCC #CCL-7), an immortalized kidney epithelial cell line from Macaca mulatta. Compounds were resuspended in dimethyl sulfoxide (DMSO) at 10 mM and added to a 384-well source plate. The compounds were diluted and transferred onto 384-well assay plates using the Echo-650 automated liquid handling system (Beckman Coulter, Indiana). The test compounds were assessed in duplicate at a top concentration of 10 μM followed by 3-fold serial dilutions to give a total of 10 concentration points. DMSO control wells were also included on the assay plates and were either infected or not, acting as positive and negative controls. TN/1501/A1 virus infections were performed in-suspension with LLC-MK2 cells. The cells were washed twice with PBS and removed from the cell-culture flask with 0.25% trypsin-EDTA (Thermo Fisher Scientific, MA). The trypsin-EDTA was inactivated by resuspending in 2% fetal bovine serum (FBS) and OptiMEM (ThermoFisher Scientific, MA) containing 1% penicillin-streptomycin. Cells were pelleted by centrifuging for 5 minutes at 800 rpm, the supernatant was removed, and cells were suspended in PBS plus 100 μg/mL CaCl2). This step was performed twice. Cells were then resuspended in serum-free (SF)-OptiMEM containing 4 μg/mL TPCK-Trypsin (Sigma Aldrich, MO), 1% penicillin-streptomycin (ThermoFisher Scientific, MA) and 100 μg/mL CaCl2). Cells were counted and seeded at a density of 5,000 cells/well, 12.5 μL/well. Virus infections were done at a multiplicity of infection (MOI) of 0.014 with 12.5 μL added per well. SF-OptiMEM, 12.5 μL/well, was added to the appropriate wells to serve as a virus-free negative control for the assay. The final concentration of TPCK-trypsin was 2 μg/mL. Plates were incubated at 37° C., 5% CO2 for 6 days. After 6 days incubation, 12.5 μL of ATP-Lite (PerkinElmer, MA) was added to each well and the raw luminescence values were determined using the Envision 2104 (Perkin Elmer, MA). The average of the raw luminescence values for the cells and virus only positive control wells was subtracted from all conditions tested and the percent cell health was determined by dividing these values by the average of the cells only negative control wells. EC50 values were then calculated by non-linear regression using a four-parameter curve logistic equation. The curve fit model employed was XLFit Dose Response One Site Model 200: y=(A+(B/(1+((x/C)^D)))), where A is the minimum y value, B is the maximum y value, C is the log EC50 value, and D is the slope factor. […] EC50 ranges are as follows: A<0.5 μM; B>0.5 μM.

[2] = test system: genotype A, "Long" strain RSV; assay: RSV-A assay (CPE protection in Hep-2 cells, ATPlite readout); assay type: cell-based, Human respiratory syncytial virus (HRSV); settings: human respiratory syncytial virus, genotype A “Long” strain RSV, MOI 0.1, CPE protection, read-out: Human RSV-A (“Long”)
Method in brief: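 Hep-2, 8,000 cells/well, MOI 0.1 (PFU- or TCID50-based); 2-fold compound series, duplicates; 5 d incubation; ATPlite luminescence readout; EC50.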

Compound	EC50 [1] [nM]	EC50 [2] [nM]
Cc1cnc2c(OC(F)F)cc(C(=O)NC[C@](O)(c3cc4c(c(-c5ccc(F)cc5)n3)OC[C@]4(C)C(N)=O)C3CC3)cc2c1 [Example 495]	< 500	< 200
Cc1cnc2c(OC(F)F)cc(C(=O)NC[C@](O)(c3cc4c(c(-c5ccc(F)c(Cl)c5)n3)OC[C@]4(C)C(N)=O)C3CC3)cc2c1 [Example 496]	< 500	< 200
Cc1cnc2c(OCC(F)F)cc(C(=O)NC[C@](O)(c3cc4c(c(-c5ccc(F)c(Cl)c5)n3)OC[C@]4(C)C(N)=O)C(F)(F)F)cc2c1 [Example 497]	< 500	< 200
Cc1cnc2c(OCC(F)F)cc(C(=O)NC[C@](O)(c3cc4c(c(-c5ccc(F)cc5)n3)OC[C@]4(C)C(N)=O)C3CC3)cc2c1 [Example 498]	< 500	< 200
Cc1cnc2c(OCC(F)F)cc(C(=O)NC[C@](O)(c3cc4c(c(-c5ccc(F)c(Cl)c5)n3)OC[C@]4(C)C(N)=O)C3CC3)cc2c1 [Example 499]	< 500	< 200
Cc1nc2c(Cl)cc(C(=O)NC[C@](O)(c3cc4c(c(-c5ccc(F)c(Cl)c5)n3)OC[C@]4(C)C(N)=O)C3CC3)cc2cc1Cl [Example 500]	< 500	< 200
Cc1cnc2c(OC(F)(F)F)cc(C(=O)NC[C@](O)(c3cc4c(c(-c5ccc(F)cc5)n3)OC[C@]4(C)C(N)=O)C(F)(F)F)cc2c1 [Example 501]	> 500	< 200
Cc1cnc2c(OC(F)(F)F)cc(C(=O)NC[C@](O)(c3cc4c(c(-c5ccc(F)cc5)n3)OC[C@]4(C)C(N)=O)C3CC3)cc2c1 [Example 502]	< 500	< 200
Cc1cnc2c(OC(F)(F)F)cc(C(=O)NC[C@](O)(c3cc4c(c(-c5ccc(F)c(Cl)c5)n3)OC[C@]4(C)C(N)=O)C3CC3)cc2c1 [Example 503]	< 500	< 200
C[C@]1(C(N)=O)COc2c1cc([C@@](O)(CNC(=O)c1cc(OC3CC3)n3nc(C4CC4)cc3c1)C(F)(F)F)nc2-c1ccc2c(c1)OC(F)(F)O2 [Example 504]	< 500	< 200
COc1cc(C(=O)NC[C@](O)(c2cc3c(c(-c4ccc5c(c4)OC(F)(F)O5)n2)OC[C@]3(C)C(N)=O)C(F)(F)F)cc2sc(C)nc12 [Example 505]	< 500	< 200
COc1cc(C(=O)NC[C@](O)(c2cc3c(c(-c4ccc(F)c(F)c4F)n2)OC[C@]3(C)C(N)=O)C(F)(F)F)cc2cc(Cl)c(C)nc12 [Example 506]	< 500	< 200
COc1cc(C(=O)NC[C@](O)(c2cc3c(c(-c4ccc(F)c(F)c4F)n2)OC[C@]3(C)C(N)=O)C(F)(F)F)cc2cc(C3CC3)nn12 [Example 507]	< 500	< 200
C[C@]1(C(N)=O)COc2c1cc([C@@](O)(CNC(=O)c1cc(OC3CC3)n3nc(C4CC4)cc3c1)C(F)(F)F)nc2-c1ccc(F)c(F)c1F [Example 508]	< 500	< 200
COc1cc(C(=O)NC[C@](O)(c2cc3c(c(-c4ccc(F)cc4Cl)n2)OC[C@]3(C)C(N)=O)C(F)(F)F)cc2cc(Cl)c(C)nc12 [Example 509]	< 500	< 200
COc1cc(C(=O)NC[C@](O)(c2cc3c(c(-c4ccc(F)cc4Cl)n2)OC[C@]3(C)C(N)=O)C(F)(F)F)cc2cc(C3CC3)nn12 [Example 510]	< 500	< 200
COc1cc(C(=O)NC[C@](O)(c2cc3c(c(-c4ccc(F)c(F)c4F)n2)OC[C@]3(C)C(N)=O)C(F)(F)F)cc2cc(C(F)(F)F)cnc12 [Example 512]	> 500	< 200
Cc1cnc2c(Cl)cc(C(=O)NC[C@](O)(c3cc4c(c(-c5ccc(F)c(F)c5F)n3)OC[C@]4(C)C(N)=O)C(F)(F)F)cc2c1 [Example 513]	< 500	< 200

Compound	EC50 [1] [nM]	EC50 [2] [nM]
Cc1nc2c(OC3CC3)cc(C(=O)NC[C@](O)(c3cc4c(c(-c5ccc(F)c(F)c5F)n3)OC[C@]4(C)C(N)=O)C(F)(F)F)cc2cc1Cl [Example 514]	< 500	< 200
Cc1cnc2c(OC(F)(F)F)cc(C(=O)NC[C@](O)(c3cc4c(c(-c5ccc(F)c(F)c5F)n3)OC[C@]4(C)C(N)=O)C(F)(F)F)cc2c1 [Example 515]	< 500	< 200
COc1cc(C(=O)NC[C@](O)(c2cc3c(c(-c4ccc(F)cc4Cl)n2)OC[C@]3(C)C(N)=O)C(F)(F)F)cc2cc(C(F)(F)F)cnc12 [Example 516]	> 500	< 200
Cc1cnc2c(Cl)cc(C(=O)NC[C@](O)(c3cc4c(c(-c5ccc(F)cc5Cl)n3)OC[C@]4(C)C(N)=O)C(F)(F)F)cc2c1 [Example 517]	< 500	< 200
Cc1nc2c(OC3CC3)cc(C(=O)NC[C@](O)(c3cc4c(c(-c5ccc(F)cc5Cl)n3)OC[C@]4(C)C(N)=O)C(F)(F)F)cc2cc1Cl [Example 518]	< 500	< 200
Cc1cnc2c(OC(F)(F)F)cc(C(=O)NC[C@](O)(c3cc4c(c(-c5ccc(F)cc5Cl)n3)OC[C@]4(C)C(N)=O)C(F)(F)F)cc2c1 [Example 519]	> 500	< 200
COc1cc(C(=O)NC[C@](O)(c2cc3c(c(-c4ccc(F)c(F)c4F)n2)OC[C@]3(C)C(N)=O)C(F)(F)F)cc2cc(Br)cnc12 [Example 520]	< 500	< 200
COc1cc(C(=O)NC[C@](O)(c2cc3c(c(-c4ccc(F)cc4Cl)n2)OC[C@]3(C)C(N)=O)C(F)(F)F)cc2cc(Br)cnc12 [Example 521]	< 500	< 200
COc1cc(C(=O)NC[C@](O)(c2cc3c(c(-c4ccc(F)c(F)c4F)n2)OC[C@]3(C)C(N)=O)C(F)(F)F)cc2cn(C3(F)CC3)nc12 [Example 522]	< 500	< 200
Cc1cnc2c(OC(F)F)cc(C(=O)NC[C@](O)(c3cc4c(c(-c5ccc(F)c(F)c5F)n3)OC[C@]4(C)C(N)=O)C(F)(F)F)cc2c1 [Example 523]	< 500	< 200
Cc1cnc2c(OC(F)F)cc(C(=O)NC[C@](O)(c3cc4c(c(-c5ccc(F)cc5Cl)n3)OC[C@]4(C)C(N)=O)C(F)(F)F)cc2c1 [Example 524]	< 500	< 200
COc1cc(C(=O)NC[C@](O)(c2cc3c(c(-c4ccc(F)c(F)c4F)n2)OC[C@]3(C)C(N)=O)C2CC2)cc2cn(C3CC3)nc12 [Example 525]	< 500	< 200
COc1cc(C(=O)NC[C@](O)(c2cc3c(c(-c4ccc(F)c(F)c4F)n2)OC[C@]3(C)C(N)=O)C2CC2)cc2cc(Cl)c(C)nc12 [Example 526]	< 500	< 200
Cc1cnc2c(OC(F)F)cc(C(=O)NC[C@](O)(c3cc4c(c(-c5ccc(F)c(F)c5F)n3)OC[C@]4(C)C(N)=O)C3CC3)cc2c1 [Example 527]	< 500	< 200
COc1cc(C(=O)NC[C@](O)(c2cc3c(c(-c4ccc(F)c(F)c4F)n2)OC[C@]3(C)C(N)=O)C2CC2)cc2cn(C(F)F)nc12 [Example 528]	< 500	< 200
COc1cc(C(=O)NC[C@](O)(c2cc3c(c(-c4ccc(F)cc4Cl)n2)OC[C@]3(C)C(N)=O)C(F)(F)F)cc2cn(C(F)F)nc12 [Example 529]	< 500	< 200
Cc1nc2c(OC3CC3)cc(C(=O)NC[C@](O)(c3cc4c(c(-c5ccc(F)c(F)c5F)n3)OC[C@]4(C)C(N)=O)C3CC3)cc2cc1Cl [Example 530]	< 500	< 200
